# Measured values taken from ChEMBL document CHEMBL5244281, “Tackling multidrug-resistant Staphylococcus aureus by natural products and their analogues acting as NorA efflux pump inhibitors” (Bioorg Med Chem, 2023).
# How the values were obtained:
# [1] = biological target: T1, Quinolone resistance protein NorA (Staphylococcus aureus) (UniProt P0A0J7); experiment: Potentiation of ciprofloxacin-mediated inhibition of NorA efflux pump in Staphylococcus aureus 1199B overexpressing NorA efflux pump assessed as reduction in ciprofloxacin MIC (Rvb= […] ug/ml)
# T1 sequence (whole entry): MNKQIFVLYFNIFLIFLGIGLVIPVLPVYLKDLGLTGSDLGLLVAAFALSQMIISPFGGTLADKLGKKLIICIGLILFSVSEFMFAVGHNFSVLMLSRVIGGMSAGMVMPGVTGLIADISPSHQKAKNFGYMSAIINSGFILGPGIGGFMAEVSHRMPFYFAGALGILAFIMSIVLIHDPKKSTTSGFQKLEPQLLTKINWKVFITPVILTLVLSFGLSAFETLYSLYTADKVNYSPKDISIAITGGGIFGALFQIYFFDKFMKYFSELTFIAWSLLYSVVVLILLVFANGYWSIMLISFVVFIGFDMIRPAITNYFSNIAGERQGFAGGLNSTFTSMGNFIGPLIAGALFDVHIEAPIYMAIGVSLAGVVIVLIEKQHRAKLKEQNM
# Staphylococcus aureus [2] = experiment: Antibacterial activity against norfloxacin resistant Staphylococcus aureus 1199B overexpressing NorA assessed as bacterial growth inhibition; assay type: functional
# Staphylococcus aureus [3] = experiment: Antibacterial activity against norfloxacin resistant Staphylococcus aureus 1199 assessed as bacterial growth inhibition; assay type: functional
# Enterococcus faecalis = experiment: Antimicrobial activity against Enterococcus faecalis ATCC 29212 assessed as bacterial growth inhibition incubated for 18 hrs by broth microdilution assay; assay type: functional
# Escherichia coli [4] = experiment: Antimicrobial activity against Escherichia coli ATCC 25922 assessed as bacterial growth inhibition incubated for 18 hrs by broth microdilution assay; assay type: functional
# Staphylococcus aureus [5] = experiment: Antimicrobial activity against Staphylococcus aureus ATCC 43300 assessed as bacterial growth inhibition incubated for 18 hrs by broth microdilution assay; assay type: functional
# Staphylococcus aureus [6] = experiment: Antimicrobial activity against Staphylococcus aureus BAA-44 assessed as bacterial growth inhibition incubated for 18 hrs by broth microdilution assay; assay type: functional
# Staphylococcus aureus [7] = experiment: Antimicrobial activity against Staphylococcus aureus ATCC 29213 assessed as bacterial growth inhibition incubated for 18 hrs by broth microdilution assay; assay type: functional
# Enterococcus faecium = experiment: Antimicrobial activity against Enterococcus faecium ATCC 700221 assessed as bacterial growth inhibition incubated for 18 hrs by broth microdilution assay; assay type: functional
# Klebsiella pneumoniae = experiment: Antimicrobial activity against Klebsiella pneumoniae 1213-2 assessed as bacterial growth inhibition incubated for 18 hrs by broth microdilution assay; assay type: functional
# Staphylococcus aureus [8] = experiment: Antibacterial activity against norfloxacin resistant Staphylococcus aureus RN4220 overexpressing […] efflux pump gene assessed as bacterial growth inhibition incubated for 24 hrs by CLSI protocol based microdilution method; assay type: functional
# Staphylococcus aureus [9] = experiment: Antibacterial activity against norfloxacin resistant Staphylococcus aureus 1199B overexpressing NorA efflux pump gene assessed as bacterial growth inhibition incubated for 24 hrs by CLSI protocol based microdilution method; assay type: functional
# Staphylococcus aureus [10] = experiment: Antibacterial activity against norfloxacin resistant Staphylococcus aureus IS-58 overexpressing TetK efflux pump gene assessed as bacterial growth inhibition incubated for 24 hrs by CLSI protocol based microdilution method; assay type: functional
# Staphylococcus aureus [11] = experiment: Synergistic antibacterial activity against Staphylococcus aureus 1199B overexpressing NorA gene assessed as fractional inhibitory concentration index at 2 ug/ml in presence of norfloxacin; assay type: functional; conditions: dose 2 µg/ml
# Staphylococcus aureus [12] = experiment: Antibacterial activity against methicillin-resistant Staphylococcus aureus 1199B overexpressing NorA gene assessed as bacterial growth inhibition; assay type: functional
# Staphylococcus aureus [13] = experiment: Antibacterial activity against Staphylococcus aureus SA10 assessed as bacterial growth inhibition incubated for 24 hrs by resazurin based microdilution assay; assay type: functional
# Candida albicans = experiment: Antifungal activity against Candida albicans NEWP031 assessed as bacterial growth inhibition incubated for 24 hrs by resazurin based microdilution assay; assay type: functional
# [14] = biological target: T1, Quinolone resistance protein NorA (Staphylococcus aureus); experiment: Potentiation of EtBr-induced inhibition of NorA efflux in Staphylococcus aureus 1199B overexpressing NorA assessed as reduction in EtBr MIC at 256 ug/ml incubated for 24 hrs by resazurin based assay (Rvb= 32 ug/ml); conditions: dose 256.0 µg/ml
# Staphylococcus aureus [15] = experiment: Antibacterial activity against Staphylococcus aureus 1199 assessed as bacterial growth inhibition incubated for 24 hrs by resazurin based microdilution assay; assay type: functional
# Staphylococcus aureus [16] = experiment: Antibacterial activity against Staphylococcus aureus ATCC 25923 assessed as bacterial growth inhibition incubated for 24 hrs by resazurin based microdilution assay; assay type: functional
# [17] = biological target: Multidrug export protein MepA (Staphylococcus aureus (strain NCTC 8325)) (UniProt Q2G140); experiment: Potentiation of EtBr-induced inhibition of MepA efflux in Staphylococcus aureus K2068 overexpressing MepA assessed as reduction in EtBr MIC at 1/8 times of MIC incubated for 24 hrs by CLSI based assay (Rvb= 322.54 ug/ml)
# Escherichia coli [18] = experiment: Antibacterial activity against Escherichia coli ATCC […] assessed as bacterial growth inhibition incubated for 24 hrs by resazurin based microdilution assay; assay type: functional
# [19] = biological target: T1, Quinolone resistance protein NorA (Staphylococcus aureus); experiment: Potentiation of norfloxacin-induced inhibition of NorA efflux in Staphylococcus aureus 1199B overexpressing NorA assessed as reduction in norfloxacin MIC at 1/8 times of MIC incubated for 24 hrs by CLSI based assay (Rvb= 322.54 ug/ml)
# Staphylococcus aureus [20] = experiment: Antibacterial activity against norfloxacin resistant Staphylococcus aureus 1199B overexpressing NorA assessed as bacterial growth inhibition incubated for 24 hrs by resazurin based microdilution assay; assay type: functional
# Staphylococcus aureus [21] = experiment: Antibacterial activity against Staphylococcus aureus EMRSA-16 assessed as bacterial growth inhibition incubated for 18 hrs by MTT assay; assay type: functional
# Staphylococcus aureus [22] = experiment: Antibacterial activity against Staphylococcus aureus EMRSA-15 assessed as bacterial growth inhibition incubated for 18 hrs by MTT assay; assay type: functional
# Staphylococcus aureus [23] = experiment: Antibacterial activity against Staphylococcus aureus RN4220 assessed as bacterial growth inhibition incubated for 18 hrs by MTT assay; assay type: functional
# Staphylococcus aureus [24] = experiment: Synergistic antibacterial activity against Staphylococcus aureus 1199B overexpressing NorA assessed as fractional Inhibitory concentration index at 64 ug/ml in presence of norfloxacin by broth dilution method; assay type: functional; conditions: dose 64 µg/ml
# Staphylococcus aureus [25] = experiment: Antibacterial activity against tetracycline-resistant Staphylococcus aureus XU212 assessed as bacterial growth inhibition incubated for 18 hrs by MTT assay; assay type: functional
# Staphylococcus aureus [26] = experiment: Antibacterial activity against Staphylococcus aureus ATCC25923 assessed as bacterial growth inhibition incubated for 18 hrs by MTT assay; assay type: functional
# Staphylococcus aureus [27] = experiment: Antibacterial activity against Staphylococcus aureus 1199B overexpressing NorA assessed as bacterial growth inhibition incubated for 18 hrs by MTT assay; assay type: functional
# [28] = biological target: T1, Quinolone resistance protein NorA (Staphylococcus aureus); conditions: 1199B, dose 64.0 µg/ml
# [29] = biological target: T1, Quinolone resistance protein NorA (Staphylococcus aureus); conditions: 1199B, dose 128.0 µg/ml, time 24.0 hrs
# [30] = biological target: T1, Quinolone resistance protein NorA (Staphylococcus aureus); experiment: Potentiation of EtBr-induced inhibition of NorA efflux pump in Staphylococcus aureus 1199B overexpressing NorA efflux pump assessed as reduction in EtBr MIC at 1/8 times of MIC by resazurin based assay (Rvb= 512 ug/ml)
# Escherichia coli [31] = experiment: Potentiation of gentamicin-induced antibacterial activity against Escherichia coli 06 assessed as gentamicin MIC at 1/8 times of MIC (Rvb= 322 ug/ml); assay type: functional
structure (smiles),measurement,setting,value
CCOC(=O)/C=C/C(C)=C/c1ccc2c(c1)CCC(C)(C)O2,MIC,[1],3.12 mg/L
C=C1CCC2CC1C2(C)C (stereo not drawn) [BETA-PINENE],MIC,Staphylococcus aureus [2],> 1020 mg/L
same,MIC,Staphylococcus aureus [3],> 1020 mg/L
CN(CC[C@H](N)CC(=O)N[C@H]1C=C[C@H](n2ccc(N)nc2=O)O[C@@H]1C(=O)O)C(=N)N [BLASTICIDIN_S],MIC,Enterococcus faecalis,25 mg/L
same,MIC,Escherichia coli [4],100 mg/L
same,MIC,Staphylococcus aureus [5],100 mg/L
same,MIC,Staphylococcus aureus [6],25 mg/L
same,MIC,Staphylococcus aureus [7],50 mg/L
same,MIC,Enterococcus faecium,200 mg/L
same,MIC,Klebsiella pneumoniae,50 mg/L
O=C(O)/C=C/c1ccc(O)c(O)c1 [CAFFEIC ACID],MIC,Staphylococcus aureus [8],1020 mg/L
same,MIC,Staphylococcus aureus [9],1020 mg/L
same,MIC,Staphylococcus aureus [10],1020 mg/L
COc1cc(-c2cc(=O)c3c(O)cc(O)cc3o2)ccc1O [CHRYSOERIOL],fractional inhibitory concentration index (FICI),Staphylococcus aureus [11],0.266
same,MIC,Staphylococcus aureus [12],256 mg/L
C=CCc1ccc(OC)cc1 [ESTRAGOLE],MIC,Staphylococcus aureus [13],≥ 1020 mg/L
same,MIC,Candida albicans,2050 mg/L
same,MIC,[14],16 mg/L
same,MIC,Staphylococcus aureus [15],≥ 1020 mg/L
same,MIC,Staphylococcus aureus [16],≥ 1020 mg/L
same,MIC,[17],256 mg/L
same,MIC,Escherichia coli [18],2050 mg/L
same,MIC,[19],256 mg/L
same,MIC,Staphylococcus aureus [20],≥ 1020 mg/L
O=C(O)c1cc(O)c(O)c(O)c1 [GALLIC ACID],MIC,Staphylococcus aureus [8],1020 mg/L
same,MIC,Staphylococcus aureus [9],1020 mg/L
same,MIC,Staphylococcus aureus [10],1020 mg/L
O=c1c(-c2ccc(O)cc2)coc2cc(O)cc(O)c12 [GENISTEIN],MIC,Staphylococcus aureus [21],8 mg/L
same,MIC,Staphylococcus aureus [22],32 mg/L
same,MIC,Staphylococcus aureus [23],32 mg/L
same,fractional inhibitory concentration index (FICI),Staphylococcus aureus [24],0.38
same,MIC,Staphylococcus aureus [25],32 mg/L
same,MIC,Staphylococcus aureus [26],32 mg/L
same,MIC,Staphylococcus aureus [27],32 mg/L
same,MIC,[28],16 mg/L
CC(C)=CCC/C(C)=C\CO [NEROL],MIC,Staphylococcus aureus [13],≥ 1020 mg/L
same,MIC,Candida albicans,212 mg/L
same,MIC,[14],16 mg/L
same,MIC,Staphylococcus aureus [15],≥ 1020 mg/L
same,MIC,Staphylococcus aureus [16],≥ 1020 mg/L
same,MIC,Escherichia coli [18],512 mg/L
same,MIC,[29],32 mg/L
same,MIC,Staphylococcus aureus [20],≥ 1020 mg/L
COc1cc2oc(-c3ccc(O)cc3)c(OC)c(=O)c2c(O)c1OC [PENDULETIN],fractional inhibitory concentration index (FICI),Staphylococcus aureus [11],0.079
same,MIC,Staphylococcus aureus [12],256 mg/L
CC1(C)CC[C@]2(C)CC[C@]3(C)C(=CC[C@@H]4[C@@]5(C)CC[C@H](O)C(C)(C)[C@@H]5CC[C@]43C)[C@@H]2C1 [beta-AMYRIN],MIC,[30],406 mg/L
same,MIC,Escherichia coli [31],203 mg/L
